“Also recorded” adds a separate entry of the source.
How the values were obtained:
alveolar bone = test: Phase 2 study of alveolar bone formation; assay type: in vivo, human; settings: drug vs placebo
Protocol: Based on these safety and bone and dentin formation data, TPX-100 was tested in two Phase 2 studies for alveolar bone and dentin formation activities, respectively.

[1] = system: subjects with bilateral patello-femoral knee osteoarthritis; test: Same study: MRI-based periarticular bone area and 3D bone shape (AAM, B Score); assay type: in vivo, human
From the text: The 3D bone shape change can be quantified using active appearance modelling (AAM). AAM enables encoding of the 3D shape and appearance of an object using multiple anchor points (“principal components”) on the surface of the object. These principal components describe computationally the specific 3D shape of the object. The use of AAM to represent femur, tibia, and patella shapes has been described in detail by Neogi, et. al. (Neogi 2013).
The MRI images of each knee used in cartilage thickness measurement were used to measure surface area of the periarticular bone in lateral and medial femur, lateral and medial trochlear femur, lateral and medial tibia, as well as lateral and medial patella. Bone shape scores in femur, trochlear femur, tibia, and patella were also measured using the same MRI images.
(§1) All KOOS subscale scores, WOMAC Total score and subscale scores, MRI-based patello-femoral and tibiofemoral cartilage thickness, and MRI-based periarticular bone area and 3D bone shape were analyzed.
(§2) MRI images were provided to central readers cartilage and periarticular bone measures. Central readers were blind as to treatment assignment.
Bone area and 3D shape of periarticular bone were analyzed using AAM software developed by iMorphics (www.imorphics.com) specifically for assessing these parameters in the osteoarthritic knee.
(§3) Statistical analyses were carried out using a two-sided paired t-test at the 5% level of significance. The outcome variables were the differences of the change of the score of each subscale of KOOS, change of cartilage thickness, periarticular bone area, and 3D bone shape score (“B Score”) change from baseline to 6 and 12 months in the treated knee (“Index Knee”) compared with the placebo-exposed knee (“Control Knee”).
Change in periarticular bone area and 3D bone shape as measured by MRI was also compared between Index and Control Knee groups. It should be noted that there were eight subjects whose MRI images were of insufficient quality and were excluded from bone area and shape analyses. Therefore, each evaluable treatment arm consisted of 85 knees.

[2] = system: subjects with bilateral patello-femoral knee osteoarthritis; test: Same study: MRI-based patello-femoral and tibiofemoral cartilage thickness; assay type: in vivo, human
Protocol: Subjects returned to their respective study sites at 3, 6 and 12 months after the first dosing day for follow-up evaluations. In addition, the study sites monitored the subject's condition through telephone contact 9 months after the first dosing day. During the 3, 6, and 12 months post-treatment, subjects were evaluated on site with physical examinations, vital signs, serum chemistries, as well as completing patient-reported outcomes including the KOOS. Adverse events and concomitant medications were recorded. MRIs of both knees were obtained during the 6 and 12-month visits.
as §1, §2, §3

defects in human molar = settings: in vivo; cited from earlier work
[3] = system: subjects with bilateral patello-femoral knee osteoarthritis; test: Phase 2 randomized double-blind placebo-controlled study of TPX-100: patient-reported outcomes (KOOS, WOMAC); assay type: in vivo, human; settings: for KOOS ADL (knee function in activities of daily living) improvement over baseline / WOMAC Function subscale improvement: 200 mg intra-articular x4 once weekly, 6 and 12 months; for KOOS ADL (knee function in activities of daily living) improvement over baseline: Index vs Control (placebo) Knees
Protocol: A multicenter, randomized double-blind, placebo-controlled study was designed to investigate the safety, tolerability, pharmacokinetics, and efficacy of TPX-100 administered in four weekly doses in subjects with bilateral patello-femoral knee osteoarthritis. The study was conducted under an open IND (investigational new drug application) at CDER (Center for Drug Evaluation and Research) of the U.S. FDA (The United States Food and Drug Administration) in compliance with GCP (Good Clinical Practice) and ICH (International Conference on Harmonization of Technical Requirements for Registration of Pharmaceuticals for Human Use) guidelines. Eighteen (18) orthopedic, rheumatologic and family practice centers in the U.S. participated in the study.
The study was divided into Part A and Part B. The Part A was designed to evaluate safety of intra-articular (I.A.) administration of TPX-100 at different dosing levels (20, 50, 100, or 200 mg per injection in sequential cohorts) in the subjects with osteoarthritis of the knees and to select a dose for Part B. Part B was to evaluate safety and efficacy of the selected dose of TPX-100.
Subjects in Part A were enrolled in sequential cohorts and randomized to receive 20, 50, 100 or 200 mg of TPX-100 in one knee (Index Knee) and identical placebo in the contralateral (Control) knee. Subjects, sites and sponsor and central MRI readers were blinded as to treatment assignment. A Safety Review Committee (SRC) evaluated safety in each dosing cohort. The SRC assessed safety and determined whether the next higher dosing regimen could be enrolled. All dosing cohorts in Part A were completed and analyzed with regard to safety prior to dose selection and initiation of Part B.
Part A included four (4) intra-articular (I.A.) injections, one per week, in sequential dosing cohorts of 20, 50, 100 and 200 mg TPX-100 versus placebo. Six (6) subjects were enrolled in 20, 50, and 100 mg cohorts, respectively, and nine (9) subjects were enrolled in the 200 mg cohort.
The 200 mg dose was selected for Part B based on safety review and the approval of the SRC. […] Per the Statistical Analysis Plan, these subjects were combined with the nine subjects in the 200 mg cohort of Part A for the efficacy analysis. In total, data from 93 subjects was analyzed for drug efficacy, each of whom received 4 once-weekly injections of TPX-100, 200 mg/dose, in the Index knee and identical placebo in the contralateral knee, as randomly assigned.
In both Part A and Part B, subjects received 4, once-weekly doses of active drug in the knee randomized to active drug in the Index knee and placebo in the contralateral (Control) knee, delivered by the intra-articular route. No other doses of drug or placebo were administered. All subjects visited their respective clinical sites at 3, 6, and 12 months after the first dosing for their safety and efficacy assessments.
On the first dosing day, the randomized subjects were assessed by physical examinations and vital signs. Further, they completed the Knee injury and Osteoarthritis Outcome Score (KOOS), which includes the Western Ontario and McMaster Universities Osteoarthritis Index (WOMAC). The KOOS questionnaire assesses knee-specific activities of daily living, sports and recreation, knee-related quality of life, other symptoms such as stiffness, and knee pain. The KOOS has been used extensively in longitudinal studies of knee osteoarthritis. After assessments were completed, subjects received one intra-articular injection in each knee, with each injection prepared from the vial(s) marked for that knee. One knee received TPX-100, and the contralateral knee received placebo with subject, site, and sponsor blinded to treatment assignment. Subjects were monitored for adverse events during the injections and for a few hours after the injections. Vital signs were also monitored after the injections. […]

[4] = Index vs Control Knees, 6 or 12 months
[5] = 200 mg IA x4, Index vs Control Knees, 12 months

Substance: TPX-100: synthetic peptide consisting of 23 amino acids, TDLQERGDNDISPFSGDGQPFKD, derived from human Matrix Extracellular Phosphoglycoprotein (MEPE)
- Alveolar bone formation (alveolar bone): did not show a difference between drug vs. placebo-exposed groups
- Mean bone shape change rate ([1]; Index Knees, first 6 months): 0.03
- Periarticular bone area change, lateral femur, lateral patella and medial patella ([1]; Index Knees, first 6 months): nearly zero in all regions
- 3D periarticular bone shape change of femur (B score) ([1]; Index vs Control Knees, 6 and 12 months (p=0.005 and 0.007)): statistically significant decrease in shape change compared to Control Knees; also recorded: statistically significant (p<0.05) difference in favor of Index Knees
- Periarticular bone area increase, medial femur ([1]; Index vs Control Knees, 6 months): less periarticular bone area increase as compared to Control Knees at 6 months, with a trend toward statistical significance (p=0.08); also recorded: less pathological bone area increase as compared to Control Knee at 6 months, with a trend toward statistical significance (p=0.08)
- Periarticular bone area increase, lateral femur, lateral and medial patella ([1]; Index vs Control Knees, 12 months): slower increase at 12 months compared with Control Knees
- 3D periarticular bone shape changes in tibia and patella ([1]; Index vs Control Knees, no statistically significant difference): slower changes in Index Knees as compared to Control Knees
- 3D bone shape change of patella in pain frequency responder group ([1]; responders, through 12 months): remained approximately zero through 12 months; also recorded: eventually no change in the 3D bone shape in patella
- Overall tibiofemoral cartilage thickness change from baseline [2, 4]: not measurably different between Index and Control Knees
- Patello-femoral (patella) cartilage thickness change from baseline by MRI (primary endpoint) [2, 4]: no statistically significant difference between Index vs. Control Knees; also recorded: no measurable difference between Index and Control Knees
- Tibiofemoral cartilage thickness change in TPX-100-treated responder knees ([2]; knees with clinically meaningful functional improvements, baseline to 12 months): significantly increased
- Dentin formation in defects in human molar (defects in human molar): reparative dentin formation
- KOOS Sports and Recreation subscale improvement ([3]; 200 mg IA x4, Index vs Control Knees, 6 months): clinically meaningful and statistically significant improvement
- KOOS Knee-related QOL subscale improvement [3, 5]: clinically meaningful and statistically significant improvement
- KOOS Pain subscale improvement [3, 5]: only a statistical trend (p<0.09) of improvement; also recorded: clinically meaningful improvement in Index Knees as compared to Control Knees at 12 months, with a trend towards statistical significance (p<0.09)
- Pain Frequency (KOOS Pain question 1) [3, 5]: statistically significant improvement in Index Knees as compared to Control Knees (p<0.05); also recorded: significantly reduced (p<0.05)
- Pain going up or down stairs (KOOS Pain question) [3, 5]: statistically significant improvement in Index Knees as compared to Control Knees (p<0.05); also recorded: significantly improved (p<0.05)
- WOMAC Pain domain improvement [3, 5]: clinically meaningful improvement in Index Knees at 12 months compared with Control knees, although the difference did not reach statistical significance
- KOOS ADL (knee function in activities of daily living) improvement over baseline [3]: clinically meaningful and statistically significant (p<0.05) improvements
- KOOS ADL (knee function in activities of daily living) improvement over baseline ([3]; listed as peptide of SEQ ID No. 1): clinically meaningful and statistically significant (p=0.008) improvement
- WOMAC Function subscale improvement ([3]; Index vs Control Knees): same robust improvement in Index Knees as compared to Control Knees
- WOMAC Function subscale improvement ([3]; Index vs Control Knees, listed as peptide of SEQ ID No. 1): clinically meaningful and statistically significant (p=0.008) improvement
- WOMAC Total score improvement ([3]; Index vs Control Knees, 6 or 12 months, or both): significant improvements in favor of Index knees
- Decrease in use of analgesics by participants ([3]; overall, over the 12-month study period): 62.5%
- Pain frequency in responders, baseline to 12 months ([3]; responders to treatment, 12 months): decreased from daily pain at baseline to semi-monthly pain at 12 months
- Pain frequency in responders, baseline to 12 months ([3]; responders to treatment, 12 months, listed as peptide of SEQ ID No. 1): semi-weekly
- Improvement of pain frequency score in responder group ([3]; responders to treatment, baseline score 3 (daily), at 12 months): approximately 1.5 points

From patent US11963996B2, “Method of treating knee pain” (ORTHOTROPHIX, Inc., priority 2018, dated 2024)
